Assay results: ChEMBL document CHEMBL1147043, “Comparative metabolism of radiolabeled muraglitazar in animals and humans by quantitative and qualitative metabolite profiling” (Drug Metab Dispos, 2007)

Columns and labels:
[1] = Fecal excretion of compound in bile duct-cannulated orally dosed Sprague-Dawley rat within 24 hrs; assay type: ADME, organism-based; settings: faeces, po, read-out: Activity
[2] = Biodistribution in orally dosed Beagle dog feces assessed as 17-hydroxy muraglitazar level by LC/MS analysis; assay type: ADME, organism-based, Canis lupus familiaris; settings: in vivo, po
[3] = Biodistribution in orally dosed human urine assessed as 17-hydroxy muraglitazar level by LC/MS analysis; assay type: ADME, organism-based; settings: in vivo, po
[4] = Biodistribution in orally dosed cynomolgus monkey urine assessed as muraglitazar 12-carboxylic acid level by LC/MS analysis; assay type: ADME, organism-based, Macaca fascicularis; settings: in vivo, po
[5] = Biodistribution in orally dosed Beagle dog feces assessed as O-demethyl muraglitazar level by LC/MS analysis; assay type: ADME, organism-based, Canis lupus familiaris; settings: in vivo, po
Hepatocyte [6] = experiment: Metabolic stability in Sprague-Dawley rat hepatocytes assessed as 17-hydroxy-O-demethyl muraglitazar level by LC/MS analysis relative to control; assay type: ADME, cell-based
[7] = Metabolic stability in cynomolgus monkey hepatocytes assessed as 8-hydroxy muraglitazar level by LC/MS analysis relative to control; assay type: ADME, cell-based, Macaca fascicularis, Hepatocyte
[8] = Metabolic stability in cynomolgus monkey hepatocytes assessed as hydroxyl muraglitazar glucuronide level by LC/MS analysis relative to control; assay type: ADME, cell-based, Macaca fascicularis, Hepatocyte
Hepatocyte [9] = experiment: Metabolic stability in human hepatocytes assessed as 12,17-dihydroxy muraglitazar level by LC/MS analysis relative to control; assay type: ADME, cell-based
Hepatocyte [10] = experiment: Metabolic stability in human hepatocytes assessed as 12-hydroxy muraglitazar level by LC/MS analysis relative to control; assay type: ADME, cell-based
Hepatocyte [11] = experiment: Metabolic stability in human hepatocytes assessed as muraglitazar glucuronide level by LC/MS analysis relative to control; assay type: ADME, cell-based
Hepatocyte [12] = experiment: Metabolic stability in human hepatocytes assessed as 9-hydroxy muraglitazar level by LC/MS analysis relative to control; assay type: ADME, cell-based
Rattus norvegicus [13] = experiment: Biodistribution in orally dosed Sprague-Dawley rat urine assessed as 9-hydroxy muraglitazar level by LC/MS analysis; assay type: ADME, organism-based; settings: in vivo, po
[14] = Biodistribution in orally dosed cynomolgus monkey feces assessed as 9-hydroxy muraglitazar level by LC/MS analysis; assay type: ADME, organism-based, Macaca fascicularis; settings: in vivo, po
Rattus norvegicus [15] = experiment: Biodistribution in orally dosed Sprague-Dawley rat urine assessed as O-demethyl muraglitazar level by LC/MS analysis; assay type: ADME, organism-based; settings: in vivo, po
[16] = Metabolic stability in CD1 mouse hepatocytes assessed as 8-hydroxy-O-demethyl muraglitazar level by LC/MS analysis relative to control; assay type: ADME, cell-based, Hepatocyte
[17] = Metabolic stability in CD1 mouse hepatocytes assessed as 8,12-dihydroxy muraglitazar level by LC/MS analysis relative to control; assay type: ADME, cell-based, Hepatocyte
[18] = Metabolic stability in CD1 mouse hepatocytes assessed as 8-hydroxy muraglitazar level by LC/MS analysis relative to control; assay type: ADME, cell-based, Hepatocyte
[19] = Metabolic stability in CD1 mouse hepatocytes assessed as hydroxyl-O-demethyl muraglitazar glucuronide level by LC/MS analysis relative to control; assay type: ADME, cell-based, Hepatocyte
[20] = Metabolic stability in CD1 mouse hepatocytes assessed as hydroxyl muraglitazar glucuronide level by LC/MS analysis relative to control; assay type: ADME, cell-based, Hepatocyte
[21] = Biodistribution in orally dosed Beagle dog feces assessed as 12,17-dihydroxy muraglitazar level by LC/MS analysis; assay type: ADME, organism-based, Canis lupus familiaris; settings: in vivo, po
[22] = Biodistribution in orally dosed human feces assessed as 12,17-dihydroxy muraglitazar level by LC/MS analysis; assay type: ADME, organism-based; settings: in vivo, po
[23] = Drug concentration in bile duct-cannulated cynomolgus monkey feces assessed as recovery of radioactive dose at 5 mg/kg, po after 48 hrs; assay type: ADME, organism-based, Macaca fascicularis; parameters: dose 5 mg/kg, route oral; settings: in vivo
[24] = Drug concentration in human urine at 10 mg/kg, po after 8 hrs; assay type: ADME, organism-based; parameters: dose 10 mg/kg, route oral; settings: read-out: Drug uptake
[25] = Drug concentration in bile duct-cannulated CD1 mouse bile at 1 mg/kg, po after 24 hrs; assay type: ADME, organism-based; parameters: dose 1 mg/kg, route oral; settings: in vivo
[26] = Fecal excretion rate in orally dosed Beagle dog within 48 hrs; assay type: ADME, organism-based, Canis lupus familiaris; settings: faeces, po, read-out: Activity
[27] = Fecal excretion of compound in orally dosed human within 48 hrs; assay type: ADME, organism-based; settings: faeces, po, read-out: Activity
Plasma [28] = experiment: Biodistribution in orally dosed human plasma assessed as muraglitazar glucuronide level after 1 hr by LC/MS analysis; assay type: ADME, organism-based; settings: in vivo, po
Plasma [29] = experiment: Biodistribution in orally dosed cynomolgus monkey plasma assessed as O-demethyl muraglitazar level after 4 hrs by LC/MS analysis; assay type: ADME, organism-based, Macaca fascicularis; settings: in vivo, po
Plasma [30] = experiment: Biodistribution in orally dosed human plasma assessed as O-demethyl muraglitazar level after 1 hr by LC/MS analysis; assay type: ADME, organism-based; settings: in vivo, po
Plasma [31] = experiment: Biodistribution in orally dosed human plasma assessed as O-demethyl muraglitazar level after 4 hrs by LC/MS analysis; assay type: ADME, organism-based; settings: in vivo, po
Plasma [32] = experiment: Biodistribution in orally dosed human plasma assessed as O-demethyl muraglitazar level after 12 hrs by LC/MS analysis; assay type: ADME, organism-based; settings: in vivo, po
[33] = Biodistribution in orally dosed cynomolgus monkey feces assessed as 8,12-dihydroxy muraglitazar level by LC/MS analysis; assay type: ADME, organism-based, Macaca fascicularis; settings: in vivo, po
[34] = Biodistribution in orally dosed cynomolgus monkey feces assessed as 12-hydroxy-O-demethyl muraglitazar level by LC/MS analysis; assay type: ADME, organism-based, Macaca fascicularis; settings: in vivo, po
[35] = Drug concentration in Sprague-Dawley rat feces assessed as recovery of radioactive dose at 11 mg/kg, po after 168 hrs; assay type: ADME, organism-based; parameters: dose 11 mg/kg, route oral; settings: in vivo
Plasma [36] = experiment: Biodistribution in orally dosed human plasma assessed as […] muraglitazar level after 4 hrs by LC/MS analysis; assay type: ADME, organism-based; settings: in vivo, po
Plasma [37] = experiment: Biodistribution in orally dosed Sprague-Dawley rat plasma assessed as 12-dihydroxy muraglitazar level after 12 hrs by LC/MS analysis; assay type: ADME, organism-based; settings: in vivo, po
Plasma [38] = experiment: Biodistribution in orally dosed cynomolgus monkey plasma assessed as 12-dihydroxy muraglitazar level after 12 hrs by LC/MS analysis; assay type: ADME, organism-based, Macaca fascicularis; settings: in vivo, po
Plasma [39] = experiment: Biodistribution in orally dosed Sprague-Dawley rat plasma assessed as 17-dihydroxy muraglitazar level after 12 hrs by LC/MS analysis; assay type: ADME, organism-based; settings: in vivo, po
Plasma [40] = experiment: Biodistribution in orally dosed cynomolgus monkey plasma assessed as 17-dihydroxy muraglitazar level after 12 hrs by LC/MS analysis; assay type: ADME, organism-based, Macaca fascicularis; settings: in vivo, po
Plasma [41] = experiment: Biodistribution in orally dosed Sprague-Dawley rat plasma assessed as O-demethyl muraglitazar glucuronide level after 12 hrs by LC/MS analysis; assay type: ADME, organism-based; settings: in vivo, po
Plasma [42] = experiment: Biodistribution in orally dosed Beagle dog plasma assessed as O-demethyl muraglitazar glucuronide level after 4 hrs by LC/MS analysis; assay type: ADME, organism-based, Canis lupus familiaris; settings: in vivo, po
Plasma [43] = experiment: Biodistribution in orally dosed cynomolgus monkey plasma assessed as O-demethyl muraglitazar glucuronide level after 4 hrs by LC/MS analysis; assay type: ADME, organism-based, Macaca fascicularis; settings: in vivo, po
Plasma [44] = experiment: Biodistribution in orally dosed cynomolgus monkey plasma assessed as O-demethyl muraglitazar glucuronide level after 12 hrs by LC/MS analysis; assay type: ADME, organism-based, Macaca fascicularis; settings: in vivo, po
Plasma [45] = experiment: Biodistribution in orally dosed cynomolgus monkey plasma assessed as O-Dealkyl muraglitazar level after 1 hr by LC/MS analysis; assay type: ADME, organism-based, Macaca fascicularis; settings: in vivo, po
Plasma [46] = experiment: Biodistribution in orally dosed human plasma assessed as O-Dealkyl muraglitazar level after 4 hrs by LC/MS analysis; assay type: ADME, organism-based; settings: in vivo, po
Canis familiaris = experiment: AUC (0 to T) in Beagle dog at 2 mg/kg, po after 4 hrs; assay type: ADME, organism-based, Canis lupus familiaris, Plasma; parameters: time < 4 hr, dose 2 mg/kg, route oral; settings: in vivo
Cynomolgus monkey [47] = experiment: Cmax in cynomolgus monkey at 1.9 mg/kg, po after 24 hrs; assay type: ADME, organism-based, Macaca fascicularis; parameters: dose 1.9 mg/kg, route oral; settings: in vivo
Cynomolgus monkey [48] = experiment: AUC (0 to T) in cynomolgus monkey at 1.9 mg/kg, po after 24 hrs; assay type: ADME, organism-based, Macaca fascicularis, Plasma; parameters: time < 24 hr, dose 1.9 mg/kg, route oral; settings: in vivo
[49] = Half life in cynomolgus monkey at 1.9 mg/kg, po after 24 hrs; assay type: ADME, organism-based, Macaca fascicularis; parameters: dose 1.9 mg/kg, route oral; settings: in vivo
[50] = Biodistribution in orally dosed Beagle dog urine assessed as O-dealkyl muraglitazar level by LC/MS analysis; assay type: ADME, organism-based, Canis lupus familiaris; settings: in vivo, po
[51] = Biodistribution in orally dosed Beagle dog feces assessed as O-dealkyl muraglitazar level by LC/MS analysis; assay type: ADME, organism-based, Canis lupus familiaris; settings: in vivo, po
[52] = Biodistribution in orally dosed human feces assessed as 8-hydroxy-O-demethyl muraglitazar level by LC/MS analysis; assay type: ADME, organism-based; settings: in vivo, po

Compound: COc1ccc(OC(=O)N(CC(=O)O)Cc2ccc(OCCc3nc(-c4ccccc4)oc3C)cc2)cc1 [MURAGLITAZAR]
- dose excreted at 24 h [1]: < 1%
- Drug uptake [2]: 1.78%
- Drug uptake [3]: 0.07%
- Drug uptake [4]: 0.04%
- Drug uptake [5]: 24.92%
- Drug uptake (Hepatocyte [6]): < 0.2%
- Drug uptake [7]: < 0.2%
- Drug uptake [8]: 2.8%
- Drug uptake (Hepatocyte [9]): 0.2%
- Drug uptake (Hepatocyte [10]): 1.9%
- Drug uptake (Hepatocyte [11]): 1.1%
- Drug uptake (Hepatocyte [12]): 0.5%
- Drug uptake (Rattus norvegicus [13]): < 0.01%
- Drug uptake [14]: 0.56%
- Drug uptake (Rattus norvegicus [15]): 0.12%
- Drug uptake [16]: 4.8%
- Drug uptake [17]: 0.3%
- Drug uptake [18]: 0.3%
- Drug uptake [19]: < 0.2%
- Drug uptake [20]: 2.7%
- Drug uptake [21]: 0.89%
- Drug uptake [22]: 0.56%
- Drug uptake [23]: 15%
- dose excreted at 8 h [24]: 1.3%
- Drug uptake [25]: 0.375 mgequiv/ml
- dose excreted at 48 h [26]: 95%
- dose excreted at 48 h [27]: 25%
- Drug uptake (Plasma [28]): 2.5%
- Drug uptake (Plasma [29]): 0.3%
- Drug uptake (Plasma [30]): 0.2%
- Drug uptake (Plasma [31]): 0.5%
- Drug uptake (Plasma [32]): 0.4%
- Drug uptake [33]: 0.16%
- Drug uptake [34]: 1.61%
- Drug uptake [35]: 87.7%
- Drug uptake (Plasma [36]): < 0.05%
- Drug uptake (Plasma [37]): 0.2%
- Drug uptake (Plasma [38]): 0.4%
- Drug uptake (Plasma [39]): < 0.05%
- Drug uptake (Plasma [40]): 21.4%
- Drug uptake (Plasma [41]): 0.4%
- Drug uptake (Plasma [42]): 3%
- Drug uptake (Plasma [43]): 0.2%
- Drug uptake (Plasma [44]): 0.4%
- Drug uptake (Plasma [45]): 0.3%
- Drug uptake (Plasma [46]): < 0.05%
- AUC (Canis familiaris): 1.1 ugequiv.h/ml
- Cmax (Cynomolgus monkey [47]): 7.1 ugequiv/ml
- AUC (Cynomolgus monkey [48]): 71 ugequiv.h/ml
- half-life [49]: 23.5 h
- Drug uptake [50]: 0.44%
- Drug uptake [51]: 0.89%
- Drug uptake [52]: 0.56%
